Measured values as given in US12263172B2, “Toll-like receptor agonists for use in the treatment of hepatitis b” (priority 2019, dated 2025).
Values joined by “and” are separate entries in the source; they are usually repeats but may differ in a detail not shown here. Equal values may be shown once.

Experiment: Phase 1 single-ascending dose (Part 1): safety and tolerability in healthy adults
Type: in vivo, human
Protocol: This ongoing trial is a Phase 1 randomized, double-blind, placebo-controlled study in male and female healthy adult volunteers aged 18-55 years. All volunteers provided written, informed consent.
All volunteers were followed up for 4 weeks and safety and tolerability were continuously assessed throughout the study. All adverse events (AEs) were recorded from the time of consent to the completion visit and were graded using the DAIDS toxicity grading scale. Volunteers also underwent physical examinations, electrocardiograms, vital sign checks and clinical laboratory parameters (chemistry, haematology, urinalysis).

## CCCCOc1nc(N)c2[nH]cc(Cc3ccc(CN4CCCC4)cc3)c2n1 [Compound 4]
Single dose 1.25 mg fasted
  subjects with at least one SAE: 0 n (%)
  subjects with at least one fatal AE: 0 n (%)
  subjects with at least one grade 1 AE: 7 (87.5%) n (%)
  subjects with at least one grade 2 AE: 1 (12.5%) n (%)
  subjects with at least one grade 3 or 4 AE: 0 n (%)
  subjects with fever and flu-like symptoms (flu-like AEs and lymphopenia): 3 and 3/8
  treatment-related AE: Any AE: 6 (75.0%) n (%)
  treatment-related AE: Chills: 0 n (%)
  treatment-related AE: Dizziness: 0 n (%)
  treatment-related AE: General disorders and administration site conditions: 3 (37.5%) n (%)
  treatment-related AE: Headache: 4 (50.0%) n (%)
  treatment-related AE: Hypertension: 0 n (%)
  treatment-related AE: Myalgia: 3 (37.5%) n (%)
  treatment-related AE: Nervous system disorders: 4 (50.0%) n (%)
  treatment-related AE: Oropharyngeal pain: 2 (25.0%) n (%)
  treatment-related AE: Pyrexia: 3 (37.5%) n (%)
  treatment-related AE: Respiratory, thoracic and mediastinal disorders: 2 (25.0%) n (%)
  treatment-related AE: Vascular disorder: 0 n (%)
  vital signs: Respiratory rate (brpm) Grade 1: 7 (87.5%) n (%)
  vital signs: Respiratory rate (brpm) Grade 2: 0 n (%)
  vital signs: SaO2 (%) 90% to <95%: 3 (37.5%) n (%)
  vital signs: SaO2 (%) 95% to <98%: 3 (37.5%) n (%)
  vital signs: Standing DBP (mmHg) Grade 1: 1 (12.5%) n (%)
  vital signs: Standing DBP (mmHg) Grade 2: 2 (25.0%) n (%)
  vital signs: Standing DBP (mmHg) Grade 3: 0 n (%)
  vital signs: Standing DBP (mmHg) Low: 0 n (%)
  vital signs: Standing SBP (mmHg) Grade 1: 1 (12.5%) n (%)
  vital signs: Standing SBP (mmHg) Low: 1 (12.5%) n (%)
  vital signs: Standing pulse (bpm) High: 1 (12.5%) n (%)
  vital signs: Standing pulse (bpm) Low: 0 n (%)
  vital signs: Supine DBP (mmHg) Grade 1: 1 (12.5%) n (%)
  vital signs: Supine DBP (mmHg) Low: 0 n (%)
  vital signs: Supine SBP (mmHg) Grade 1: 1 (12.5%) n (%)
  vital signs: Supine SBP (mmHg) Grade 2: 0 n (%)
  vital signs: Supine SBP (mmHg) Low: 1 (12.5%) n (%)
  vital signs: Supine pulse (bpm) Low: 0 n (%)
  ↑ AST Grade 3 (laboratory abnormality): 0 n (%)
  ↑ Amylase Grade 2 (laboratory abnormality): 0 n (%)
  ↑ Cholesterol Grade 2 (laboratory abnormality): 1 (17) n (%)
  ↑ Creatine kinase Grade 2 (laboratory abnormality): 0 n (%)
  ↑ Creatine kinase Grade 4 (laboratory abnormality): 0 n (%)
  ↑ Glucose Grade 2 (laboratory abnormality): 1 (13) n (%)
  ↑ LDL cholesterol Grade 2 (laboratory abnormality): 0 n (%)
  ↑ LDL cholesterol Grade 3 (laboratory abnormality): 1 (13) n (%)
  ↑ Lipase Grade 2 (laboratory abnormality): 0 n (%)
  ↑ Pancreatic amylase Grade 2 (laboratory abnormality): 0 n (%)
  ↑ Potassium Grade 2 (laboratory abnormality): 0 n (%)
  ↑ Sodium Grade 2 (laboratory abnormality): 1 (13) n (%)
  ↑ Triglycerides Grade 2 (laboratory abnormality): 4 (50) n (%)
  ↑ Triglycerides Grade 3 (laboratory abnormality): 0 n (%)
  ↓ Bicarbonate Grade 2 (laboratory abnormality): 0 n (%)
  ↓ Lymphocytes Grade 2 (laboratory abnormality): 1 (13) n (%)
  ↓ Lymphocytes Grade 4 (laboratory abnormality): 0 n (%)
  ↓ Neutrophils Grade 2 (laboratory abnormality): 0 n (%)
  ↓ Phosphate Grade 2 (laboratory abnormality): 0 n (%)
Single dose 1.25 mg fed
  Any AE (treatment-emergent): 6 (86) n (%)
  Back pain Grade 1 (treatment-emergent AE): 0 n (%)
  Chills Grade 1 (treatment-emergent AE): 0 n (%)
  Contact dermatitis Grade 1 (treatment-emergent AE): 0 n (%)
  Dizziness Grade 1 (treatment-emergent AE): 0 n (%)
  ECG actual value: Heart rate (bpm) Low: 0 n (%)
  ECG actual value: QRS (ms) High: 0 n (%)
  ECG actual value: QTcB (ms) ]450; 480]: 0 n (%)
  ECG actual value: QTcF (ms) ]450; 480]: 0 n (%)
  ECG change from reference: QTcB (ms) [30; 60]: 2 (28.6%) n (%)
  ECG change from reference: QTcF (ms) [30; 60]: 1 (14.3%) n (%)
  Headache Grade 1 (treatment-emergent AE): 1 (14) n (%)
  Headache Grade 2 (treatment-emergent AE): 0 n (%)
  Hypertension Grade 1 (treatment-emergent AE): 0 n (%)
  Hypertension Grade 2 (treatment-emergent AE): 0 n (%)
  Myalgia Grade 1 (treatment-emergent AE): 0 n (%)
  Oropharyngeal pain Grade 1 (treatment-emergent AE): 2 (29) n (%)
  Pyrexia Grade 1 (treatment-emergent AE): 0 n (%)
  Pyrexia Grade 2 (treatment-emergent AE): 0 n (%)
  URTI Grade 1 (treatment-emergent AE): 1 (14) n (%)
  lab toxicity: Amylase (U/L), upwards, Grade 1: 1 (14.3%) n (%)
  lab toxicity: Amylase (U/L), upwards, Grade 2: 0 n (%)
  lab toxicity: Cholesterol (mmol/L), upwards, Grade 1: 0 n (%)
  lab toxicity: Cholesterol (mmol/L), upwards, Grade 2: 0 n (%)
  lab toxicity: Creatine kinase (U/L), upwards, Grade 1: 0 n (%)
  lab toxicity: Creatine kinase (U/L), upwards, Grade 2: 0 n (%)
  lab toxicity: Creatine kinase (U/L), upwards, Grade 4: 0 n (%)
  lab toxicity: Glucose (mmol/L), upwards, Grade 1: 2 (28.6%) n (%)
  lab toxicity: Glucose (mmol/L), upwards, Grade 2: 0 n (%)
  lab toxicity: LDL cholesterol (mmol/L, calculated), upwards, Grade 1: 1 (14.3%) n (%)
  lab toxicity: LDL cholesterol (mmol/L, calculated), upwards, Grade 2: 0 n (%)
  lab toxicity: LDL cholesterol (mmol/L, calculated), upwards, Grade 3: 0 n (%)
  lab toxicity: Lymphocytes (giga/L), downwards, Grade 2: 0 n (%)
  lab toxicity: Lymphocytes (giga/L), downwards, Grade 4: 0 n (%)
  lab toxicity: Neutrophils, segmented (giga/L), downwards, Grade 1: 0 n (%)
  lab toxicity: Neutrophils, segmented (giga/L), downwards, Grade 2: 0 n (%)
  lab toxicity: Platelets (giga/L), downwards, Grade 1: 0 n (%)
  lab toxicity: Sodium (mmol/L), upwards, Grade 1: 3 (42.9%) n (%)
  lab toxicity: Sodium (mmol/L), upwards, Grade 2: 0 n (%)
  lab toxicity: Triglycerides (mmol/L), upwards, Grade 1: 3 (42.9%) n (%)
  lab toxicity: Triglycerides (mmol/L), upwards, Grade 2: 1 (14.3%) n (%)
  lab toxicity: Triglycerides (mmol/L), upwards, Grade 3: 0 n (%)
  lab toxicity: Urate (μmol/L), upwards, Grade 1: 0 n (%)
  subjects with at least one AE: 6 (85.7%) n (%)
  subjects with at least one AE for which any study drug or study was permanently stopped: 0 n (%)
  subjects with at least one AE for which any study drug or study was temporarily stopped: 0 n (%)
  subjects with at least one AE possibly related to any study drug: 1 (14.3%) n (%)
  subjects with at least one AE possibly, probably or very likely related to any study drug: 1 (14.3%) n (%)
  subjects with at least one AE probably related to any study drug: 0 n (%)
  subjects with at least one AE very likely related to any study drug: 0 n (%)
  subjects with at least one SAE: 0 n (%)
  subjects with at least one fatal AE: 0 n (%)
  subjects with at least one grade 1 AE: 6 (85.7%) n (%)
  subjects with at least one grade 2 AE: 0 n (%)
  subjects with at least one grade 3 or 4 AE: 0 n (%)
  treatment-related AE: Any AE: 1 (14.3%) n (%)
  treatment-related AE: Chills: 0 n (%)
  treatment-related AE: Dizziness: 0 n (%)
  treatment-related AE: General disorders and administration site conditions: 0 n (%)
  treatment-related AE: Headache: 0 n (%)
  treatment-related AE: Hypertension: 0 n (%)
  treatment-related AE: Myalgia: 0 n (%)
  treatment-related AE: Nervous system disorders: 0 n (%)
  treatment-related AE: Oropharyngeal pain: 1 (14.3%) n (%)
  treatment-related AE: Pyrexia: 0 n (%)
  treatment-related AE: Respiratory, thoracic and mediastinal disorders: 1 (14.3%) n (%)
  treatment-related AE: Vascular disorder: 0 n (%)
  vital signs: Respiratory rate (brpm) Grade 1: 3 (42.9%) n (%)
  vital signs: Respiratory rate (brpm) Grade 2: 0 n (%)
  vital signs: SaO2 (%) 90% to <95%: 1 (14.3%) n (%)
  vital signs: SaO2 (%) 95% to <98%: 3 (42.9%) n (%)
  vital signs: Standing DBP (mmHg) Grade 1: 1 (14.3%) n (%)
  vital signs: Standing DBP (mmHg) Grade 2: 2 (28.6%) n (%)
  vital signs: Standing DBP (mmHg) Grade 3: 1 (14.3%) n (%)
  vital signs: Standing DBP (mmHg) Low: 0 n (%)
  vital signs: Standing SBP (mmHg) Grade 1: 3 (42.9%) n (%)
  vital signs: Standing SBP (mmHg) Low: 0 n (%)
  vital signs: Standing pulse (bpm) High: 1 (14.3%) n (%)
  vital signs: Standing pulse (bpm) Low: 0 n (%)
  vital signs: Supine DBP (mmHg) Grade 1: 1 (14.3%) n (%)
  vital signs: Supine DBP (mmHg) Low: 0 n (%)
